Source: article PMC6901946, “Intranasal MMI-0100 Attenuates Aβ1−42- and LPS-Induced Neuroinflammation and Memory Impairments via the MK2 Signaling Pathway” (Frontiers in Immunology, 2019)
Ends that are not written are not given here.

Columns and labels:
MK2 = molecular target: T1, MK2 (Mus musculus, UniProt P49138); experiment: Western blotting of pMK2 in hippocampus; format: in vivo; conditions: Aβ1−42-induced model; Figure 7; n = 5
T1 construct: the protein samples (40 μg per lane) isolated from the hippocampus were separated by SDS-PAGE; from tissue; host or cells: mouse hippocampus
Protocol: Western blotting was carried out as per the manufacturer's instructions (Bio-Rad Laboratories, Inc). Protein was extracted with RIPA buffer containing protease inhibitor (Gibco; Thermo Fisher Scientific, Inc.). The protein concentration was determined using a BCA protein assay kit (Pierce; Thermo Fisher Scientific, Inc.). Briefly, the protein samples (40 μg per lane) isolated from the hippocampus were separated by SDS-PAGE and electrophoretically transferred onto polyvinylidene fluoride membranes. Membranes were blocked with 5% skimmed milk for 2 h and incubated overnight at 4°C with specific first antibodies. GAPDH was used as a loading control. Subsequently, the membranes were incubated with the corresponding secondary antibodies and the reaction was visualized with chemiluminescence reagents provided with an ECL kit (Thermo) and exposed to a film. The intensity of the blots was quantified with densitometry (Image J 1.49v; National Institutes of Health).

TNF-α, IL-1β, IL-6 = experiment: ELISA of pro-inflammatory cytokines in hippocampus; format: in vivo, mouse; conditions: Aβ1−42-induced model, Figure 6, n = 5
Protocol: Total proteins from the hippocampus of mice in each group were extracted with RIPA lysis buffer containing protease inhibitor (Gibco, Thermo Fisher Scientific, Inc.). Total proteins were determined using a bicinchoninic acid protein assay kit (Sangon Biotech Co., Ltd.). IL-1β, IL-6, and TNF-α in the hippocampus tissue were measured using ELISA kits (cat number: E-EL-M0049 for TNF-α, cat number: E-EL-M0044 for IL-6, cat number: E-EL-M0037 for IL-1β, Elabscience), according to the manufacturer's instructions.

IL-6, IL-1β, TNF-α, iNOS = experiment: Quantitative PCR of pro-inflammatory factors in hippocampus; format: in vivo, mouse; conditions: Aβ1−42-induced model; 15 min after i.c.v. MMI-0100; Figure 5; n = 5
Protocol: Amnesia was caused by Aβ1−42 injection for 14 days or LPS infusion for 3 days; 15 min after injection of MMI-0100 or vehicle, the hippocampus was removed from mice. Real-time RT-PCR was performed according to a previous report ([31]). Total RNA was extracted using Trizol reagent (TaKaRa) and 1 μg of RNA in each sample was reversely transcribed into a single-stranded complementary DNA with the 5X PrimeScript RT Master Mix (TaKaRa) following the manufacturer's instructions. Amplification was carried out in a 25 μl reaction mixture consisting of 12.5 μl of 2X SYBR Premis Ex TaqTM II, 2 μl of cDNA, 1 μl of forward primer, 1 μl of reverse primer, and 8.5 μl of H2O, and was run under the following conditions: 95°C for 30 s, followed by 40 cycles of 95°C for 5 s, 58°C for 30 s, and 72°C for 30 s. The primer pair P1/P2 was used in the RT-PCR assay to identify the expression level of TNF-α, IL-6, IL-1β, and iNOS gene in vehicle + vehicle-, Aβ1−42 + vehicle-, Aβ1−42 + MMI-0100-, LPS + vehicle-, and LPS + MMI-0100-treated groups.

Kunming mice [1] = experiment: Novel object recognition (NOR) task; format: in vivo, mouse; conditions: Aβ1−42 800 pmol i.c.v. 14 days before, tested after 24 h
Protocol: (§1) MMI-0100 or vehicle was infused into the brain by using a 32-gauge stainless steel syringe needle placed in and projecting 0.5 mm below the tip of the cannula for 2 min. This needle was connected via a PE tube to a 5-μl Hamilton syringe mounted to a Microdrive pump (KD Scientific). To allow the drug to diffuse, the infusion syringe remained in place for 1 min. For the lateral ventricle, injection volume is 2 μl, and for the bilateral hippocampus CA1, injection volume is 0.5 μl/side. After drug administration, each mouse was subjected to behavioral testing immediately. In addition, the selection of the doses was based on the previous reports and our preliminary observations ([24]).
(§2) The behavior experiments were carried out 15 min after i.c.v. injection of MMI-0100, or 2 h after intranasal infusion of MMI-0100. The cytokines were measured 15 min after i.c.v. injection of MMI-0100.
(§3) The procedures for the novel object recognition (NOR) and object location recognition (OLR) tasks were described in our previous report ([23], [30]). The videos for NOR and OLR tasks were shown in Supplementary Material. […] The discrimination index (DI) in the memory retention phase was calculated as the percentage of the time a mouse explored the new object or location over the total time the mouse explored the two objects or locations. […]

Kunming mice [2] = experiment: Object location recognition (OLR) task; format: in vivo, mouse; conditions: Aβ1−42 800 pmol i.c.v. 14 days before, tested after 24 h
Protocol: as §1, §2, §3

in vitro = conditions: mouse, brain homogenates
Protocol: The peptide levels after incubation were expressed as percent parent remaining. Points indicate the means and vertical lines indicate the SEM of 3 separate experiments.

[3] = intranasal experiment (Figure 10), MMI-0100 25 nmol intranasal or vehicle

T1 sequence (P49138 whole entry): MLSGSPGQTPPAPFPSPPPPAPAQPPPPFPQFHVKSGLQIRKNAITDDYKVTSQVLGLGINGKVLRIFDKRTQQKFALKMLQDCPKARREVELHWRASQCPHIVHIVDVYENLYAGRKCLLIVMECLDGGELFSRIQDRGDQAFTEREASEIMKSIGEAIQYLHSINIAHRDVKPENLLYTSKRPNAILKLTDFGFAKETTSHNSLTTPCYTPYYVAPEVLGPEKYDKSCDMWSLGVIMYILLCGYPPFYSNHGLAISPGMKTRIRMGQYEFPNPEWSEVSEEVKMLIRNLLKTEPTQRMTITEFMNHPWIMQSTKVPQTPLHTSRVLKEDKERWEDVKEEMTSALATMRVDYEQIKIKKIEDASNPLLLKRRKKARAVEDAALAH

In the case of “Aβ1−42: Aβ1−42 peptide purchased from Hangzhou Chinese Peptide Biochemical Company, oligomer used to induce AD model”, the “phosphorylation of MK2 (pMK2/tMK2) in hippocampus” value (MK2) is reported as “significantly up-regulated”, the “protein levels of IL-6, IL-1β and TNF-α in hippocampus” value (TNF-α, IL-1β, IL-6) is reported as “higher” and the “mRNA level of IL-6, IL-1β, TNF-α and iNOS in hippocampus” value (IL-6, IL-1β, TNF-α, iNOS) is reported as “dramatically increased”. The “discrimination index (DI), NOR” value (Kunming mice [1]; Figure 2A, MMI-0100 5 nmol i.c.v. or vehicle, chance level 50%) was 50.96%, the “discrimination index (DI), NOR” value (Kunming mice [1]; [3]) was 50.98% and the “discrimination index (DI), OLR” value (Kunming mice [2]; Figure 3A, MMI-0100 5 nmol i.c.v. or vehicle, chance level 50%) was 48.04%. The “discrimination index (DI), OLR” value (Kunming mice [2]; [3]) was 46.31%.

For YARAAARQARAKALARQLGVAA [MMI-0100], the half-life (in vitro) was roughly 2.69 h.
